In US7459451B2, “Pyrazolopyridine derivatives” (Astellas Pharma Inc., priority 2004, dated 2008) one finds IC50 and melting point data, which are given here for four compounds.

Data set [1] relates to TNF-alpha production in rat peripheral blood mononuclear cells (PBMC). Kind of data set: Inhibition on TNF-alpha production in rat mononuclear cells. Format: cell-based. The following applies: inhibitory activity on TNF-alpha production, LPS 1 μg/mL, 24 hours, ELISA. The method, then: (b) Inhibition on TNF-alpha Production in Rat Mononuclear Cells 1. Test Method (1) Rat Peripheral Blood Mononuclear Cells (PBMC) Preparation
Male Wistar rat at the age of 15 weeks was anesthetized with ether and the blood (about 15 ml) was collected with a disposable syringe from the abdominal artery under celiotomy. Collected blood was transferred to a heparin containing polyethylene tube and an equal volume of RPMI1640 was added to each tube. Diluted blood was then piled tip to 20 ml of Lympholyte-Rat (Cedarlane Laboratories, Canada) in polystyrene centrifuge tube. After centrifugation at 3,000 rpm for 30 minutes, cells gathering in the center area of the gradient were collected by capillary and washed with 40 mL of RPMI1640 by twice of centrifugation at 1,200 rpm for 10 minutes. Precipitate was then suspended in 10 ml of Tris-ammonium-chloride buffer and stood for 10 minutes in order to lyse remaining erythrocytes. After centrifugation at 1,200 rpm for 10 minutes, the precipitate was washed twice with 50 ml of RPMI1640 by centrifugation. PBMC finally precipitated were suspended in RPMI1640 containing 1% fetal bovine serum and antibiotics. After cell counting, final suspension at 3×10^6 cells/mL in culture medium was prepared.
(2) TNF-alpha Production from Stimulated PBMCs
Rat PBMC prepared by the density gradient method using Lympholyte-Rat, were suspended in the culture medium mentioned above with the concentration of 3×10^6 cells/mL and 0.5 ml of the suspension was sowed into each well of a 24-well culture plate. Cells were incubated in the CO2 incubator for 24 hours with 0.25 ml of LPS in addition of 0.25 ml of concentrations of drugs or vehicle at the start of the incubation. Final concentration of LPS in the incubation medium was 1 μg/mL. After 24 hours, the supernatant of each well by centrifugation at 1,700 rpm for 10 minutes was stored at −80° C. until assay. TNF-alpha levels in the medium were measured by ELISA.
The IC50 values of drugs on cytokine productions in LPS stimulated PBMC were estimated by the regression analysis for the relative values of cytokine level in the drug-treated wells compared to those of the vehicle-treated ones.

Data set [2] addresses U937 Phosphodiesterase IV (PDE IV). Kind of data set: Inhibition of U937 Phosphodiesterase IV (PDE IV). It is filed as biochemical. The note with it: inhibitory activity on PDE-IV; enzyme preparation from U937 cells, [3H]cAMP SPA assay, CI-930 10 μM present. As for the experimental part: (a) Inhibition of U937 Phosphodiesterase IV (PDE IV)
Cultured U937 cells were washed twice and harvested with phosphate-buffered saline (PBS) by cell-scraper. After centrifugation, the cell pellet was suspended in homogenizing buffer (0.5% deoxycholate [DOC], 5 mM 2-mercaptoethanol, 1 μM leupeptin, 100 μM PMSF, 20 μM p-tosyl-L-lysine-chloromethyl ketone [TLCK] in PBS). The cell suspension was then sonicated for a couple of minutes and homogenized by a glass-Teflon homogenizer with twenty strokes. The homogenate was centrifuged at 200 g for 30 minutes, and the supernatant was further ultra-centrifuged at 100,000×g for 90 minutes (4° C.). The final supernatant was dialyzed against dialysis buffer, which was the same component as homogenizing buffer without DOC. The dialysate of enzyme preparation was stored at −20° C. until assay.
PDE4, activity was estimated with a Phosphodiesterase [^3H]cAMP SPA Enzyme Assay System (Amersham Pharmacia Biotech), using a 96 well Opti-plate. Reactions were initiated by addition of 0.025 μCi/well of [^3H]cAMP to the enzyme mixture containing 50 mM Tris-HCl (pH 7.5), 8.3 mM MgCl2, 1.7 mM EGTA, and various concentrations of the test compound or vehicle. CI-930 (10 μM in final), a specific PDE3, inhibitor, was also added in the reaction mixture. After incubation at 30° C. for 15 minutes, 50 μL of SPA beads suspension was added to each well. The well-plate was then shaken for 20 minutes by a plate mixer. Radio-activity in each well was counted by a Top Counter.
Test compounds were dissolved in 100% dimethylsulfoxide (DMSO) and diluted into respective concentrations with the final solution containing 1% v/v of DMSO.
IC50 values of test compounds for the enzyme activity of PDE4 was determined from regression analysis for log-logit conversion values of percent inhibition in the compound-treated tubes compared to that of the control. Percent inhibition was calculated with the following equation: Inhibition (%)={1−(C−B)/(A−B)}×100; in which A, B and C means mean values of radio-activity counts (dpm) of control, blank and the compound-treated tubes, respectively.

On to `CCn1ncc2c(-c3cncc(C)c3)c(/C=C/C(=O)O)c(COCC3CCCCC3)nc21` [Example 89, (2E)-3-[6-[(Cyclohexylmethoxy)methyl]-1-ethyl-4-(5-methyl-3-pyridyl)-1H-pyrazolo[3,4-b]pyridin-5-yl]acrylic acid], for which the melting point fell in the range of 172 to 173 °C. The IC50 in data set [1] was determined as 85.6 nM. The IC50 in data set [2] is < 1000 nM.
Take `CCn1ncc2c(-c3cncc(C)c3)c(/C=C/C(=O)O)c(-c3ccccc3)nc21` [Example 91, (2E)-3-[1-Ethyl-4-(5-methyl-3-pyridyl)-6-phenyl-1H-pyrazolo[3,4-b]pyridin-5-yl]acrylic acid]: the IC50 in data set [1] was 15.7 nM; in data set [2], < 1000 nM.
`CCn1ncc2c(-c3cncc(Br)c3)c(/C=C/C(=O)O)c(C)nc21` [Example 84, (2E)-3-[4-(5-Bromo-3-pyridyl)-1-ethyl-6-methyl-1H-pyrazolo[3,4-b]pyridin-5-yl]acrylic acid] returned a melting point of 189 to 190 °C. Further, in data set [1], the IC50 was 62.7 nM. In addition, the IC50 in data set [2] was < 1000 nM.
In the same order, the values of `CCn1ncc2c(-c3cncc(Br)c3)c(C#N)c(C)nc21` [Example 73, 4-(5-bromo-3-pyridyl)-1-ethyl-6-methyl-1H-pyrazolo[3,4-b]pyridine-5-carbonitrile] are 165 to 166 °C, 27 nM and < 1000 nM.
